Data: publication PMC7245553 (Cell chemical biology, 2020)
Converted amounts (≈) assume the structure as drawn. “And” between values parts separate entries of the source, which are not always exact repeats. Identical values can stand only once. Like-named read-outs stand apart in the source and are kept apart here.

What was measured:
M. tuberculosis H37Rv [1] = assay: M. tuberculosis MIC assay; conditions: for MIC H37Rv: 90% inhibition of bacterial growth, Alamar blue
in vitro = type: cell-based; conditions: African green monkey
[2] = Mouse liver microsomal stability; type: in vitro ADME; conditions: pH 7.4
physchem = type: physicochemical; conditions: pH 7.4, aqueous buffer, kinetic from dmso stock
[3] = type: in vitro ADME; conditions: mouse, 5 µM
M. tuberculosis [4] = assay: M. tuberculosis killing kinetics; type: cell-based, Mycobacterium tuberculosis; conditions: for reduction in CFUs, killing kinetics: 103 MIC of compound, over 7 days, followed by re-growth; for cidality in vitro: H37Rv strain; for killing in combination with INH: each at 10× MIC
[5] = tested on: CYP1A2, CYP2C9, CYP2C19, CYP2D6, CYP3A4 (one value for the profile of isoforms; except 2C19 for compound 10); assay: in vitro; type: in vitro ADME; conditions: human, pH 7.4
[6] = type: in vitro ADME; conditions: human, 5 µM
M. tuberculosis [7] = assay: M. tuberculosis MBC assay; type: cell-based; conditions: Mycobacterium tuberculosis
M. tuberculosis H37Rv [8] = assay: Mouse model of acute M. tuberculosis infection; type: in vivo, BALB/c mice; conditions: for increase of CFU in the lungs versus start of treatment: 100 mg/kg po qd; for bacterial load in the spleen: po qd
[9] = tested on: M. tuberculosis mc^26206 within J774.1 cells; assay: microbe, parasite or virus in culture; type: cell-based; conditions: Mycobacterium tuberculosis, J774.1, read-out: IC50, intracellular growth of M. tuberculosis mc^26206 within J774.1 cells
cytochrome P450 2C19 = cytochrome P450 2C19 (Homo sapiens, UniProt P33261); assay: Human cytochrome P450 2C19 inhibition; type: in vitro ADME
Chain of cytochrome P450 2C19 (P33261 whole entry): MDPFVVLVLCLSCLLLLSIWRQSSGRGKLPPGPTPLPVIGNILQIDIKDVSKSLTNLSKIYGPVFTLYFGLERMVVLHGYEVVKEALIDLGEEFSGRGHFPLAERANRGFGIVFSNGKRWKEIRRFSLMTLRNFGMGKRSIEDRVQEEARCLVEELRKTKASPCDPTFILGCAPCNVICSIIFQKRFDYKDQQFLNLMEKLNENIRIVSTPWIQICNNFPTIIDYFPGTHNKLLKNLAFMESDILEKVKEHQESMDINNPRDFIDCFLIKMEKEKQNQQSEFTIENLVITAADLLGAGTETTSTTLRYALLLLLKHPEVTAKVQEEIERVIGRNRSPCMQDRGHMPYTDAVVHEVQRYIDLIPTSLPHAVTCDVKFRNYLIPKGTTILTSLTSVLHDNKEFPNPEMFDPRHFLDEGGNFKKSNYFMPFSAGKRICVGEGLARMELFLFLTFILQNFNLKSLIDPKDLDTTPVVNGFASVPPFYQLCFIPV

[10] = Mouse pharmacokinetic profiling; type: in vivo, CD-1 mice
[11] = pH 7.4; cited from earlier work
M. tuberculosis H37Rv [12] = conditions: acute model, 100 mg/kg qd po, alone; ref Kumar et al., 2018; cited from earlier work
M. tuberculosis H37Rv [13] = conditions: cited from earlier work
[14] = mouse, microsomes; cited from earlier work
Vero cells = conditions: cited from earlier work
M. tuberculosis [15] = assay: Mouse model of chronic M. tuberculosis infection; type: in vivo, BALB/c mice; conditions: for reduction in CFUs, controls: 10 or 20 mg/kg qd po
Klebsiella pneumoniae = assay: MIC versus Klebsiella pneumoniae; type: cell-based
hERG = hERG (Homo sapiens, UniProt Q12809); assay: hERG inhibition; type: biochemical
Chain of hERG (Q12809 whole entry): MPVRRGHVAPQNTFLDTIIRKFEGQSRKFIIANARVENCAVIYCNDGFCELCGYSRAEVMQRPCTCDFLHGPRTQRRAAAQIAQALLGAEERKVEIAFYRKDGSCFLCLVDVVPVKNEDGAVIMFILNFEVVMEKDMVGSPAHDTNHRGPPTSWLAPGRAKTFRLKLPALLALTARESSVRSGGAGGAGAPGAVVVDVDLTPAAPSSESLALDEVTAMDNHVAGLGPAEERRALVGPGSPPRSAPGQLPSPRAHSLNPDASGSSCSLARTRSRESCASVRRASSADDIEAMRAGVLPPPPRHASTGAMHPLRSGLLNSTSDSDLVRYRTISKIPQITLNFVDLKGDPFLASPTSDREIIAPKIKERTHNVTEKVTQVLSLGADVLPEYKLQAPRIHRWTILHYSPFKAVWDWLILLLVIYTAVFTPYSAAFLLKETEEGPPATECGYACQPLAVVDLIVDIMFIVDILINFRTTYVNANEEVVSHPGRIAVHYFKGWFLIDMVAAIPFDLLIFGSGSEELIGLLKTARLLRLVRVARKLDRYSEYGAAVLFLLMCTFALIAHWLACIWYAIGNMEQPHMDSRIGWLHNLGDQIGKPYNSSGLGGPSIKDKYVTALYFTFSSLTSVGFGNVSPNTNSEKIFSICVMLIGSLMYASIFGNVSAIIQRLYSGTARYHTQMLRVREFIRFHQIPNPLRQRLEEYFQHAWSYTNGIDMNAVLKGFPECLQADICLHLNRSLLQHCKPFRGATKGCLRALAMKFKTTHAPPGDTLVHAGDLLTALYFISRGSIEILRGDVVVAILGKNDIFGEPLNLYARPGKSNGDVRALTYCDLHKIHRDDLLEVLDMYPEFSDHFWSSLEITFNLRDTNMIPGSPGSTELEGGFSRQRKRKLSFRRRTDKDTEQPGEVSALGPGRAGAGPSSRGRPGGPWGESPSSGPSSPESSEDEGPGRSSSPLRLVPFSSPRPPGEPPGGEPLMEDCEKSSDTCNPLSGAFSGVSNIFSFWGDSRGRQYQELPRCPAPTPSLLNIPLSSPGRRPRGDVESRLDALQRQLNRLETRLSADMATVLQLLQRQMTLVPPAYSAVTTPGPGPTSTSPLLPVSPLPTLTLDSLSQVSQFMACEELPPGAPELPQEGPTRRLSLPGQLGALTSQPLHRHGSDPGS

Staphylococcus aureus = assay: MIC versus Staphylococcus aureus; type: cell-based
Enterobacter cloacae = assay: MIC versus Enterobacter cloacae; type: cell-based
Enterococcus faecium = assay: MIC versus Enterococcus faecium; type: cell-based
KasA = KasA (Mycobacterium tuberculosis, UniProt P9WQD9); assay: Microscale thermophoresis binding assay
Chain of KasA (P9WQD9 whole entry): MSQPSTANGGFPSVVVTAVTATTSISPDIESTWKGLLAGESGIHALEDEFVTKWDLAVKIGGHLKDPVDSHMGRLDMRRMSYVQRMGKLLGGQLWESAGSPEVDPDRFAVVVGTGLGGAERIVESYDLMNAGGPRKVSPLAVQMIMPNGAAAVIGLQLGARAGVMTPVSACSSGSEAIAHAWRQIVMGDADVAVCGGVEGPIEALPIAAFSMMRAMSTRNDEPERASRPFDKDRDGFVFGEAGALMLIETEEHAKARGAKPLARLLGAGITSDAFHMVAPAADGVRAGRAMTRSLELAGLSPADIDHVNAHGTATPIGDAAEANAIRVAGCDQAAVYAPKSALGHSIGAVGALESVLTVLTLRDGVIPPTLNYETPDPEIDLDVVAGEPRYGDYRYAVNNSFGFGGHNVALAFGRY

[16] = Dog liver microsomal stability; type: in vitro ADME; conditions: pH 7.4
[17] = tested on: mycolic acid biosynthesis within M. tuberculosis H37Rv; assay: Mycolic acid biosynthesis analysis; type: cell-based, Mycobacterium tuberculosis
Pseudomonas aeruginosa = assay: MIC versus Pseudomonas aeruginosa; type: cell-based
[18] = female, CD-1, mouse, in vivo, po

SMILES: CCCCS(=O)(=O)Nc1ccc2[nH]cc(C)c2c1 [Compound 4, N-(3-methyl-1H-indol-5-yl)butane-1-sulfonamide]
- MIC H37Rv (M. tuberculosis H37Rv [1]): 1.6 µM (≈ 0.426 µg/mL)
- CC50 (in vitro): > 190 µM

SMILES: CCCCS(=O)(=O)Nc1ccc2[nH]c(C(=O)OCC)c(C)c2c1 [Compound 5, ethyl 5-(butylsulfonamido)-3-methyl-1H-indole-2-carboxylate]
- half-life ([2]; microsomes): < 0.5 min
- MIC H37Rv (M. tuberculosis H37Rv [1]): 0.20 µM (≈ 0.0677 µg/mL)
- CC50 (in vitro): > 150 µM
- solubility kinetic at 4 h (physchem): 0.895 µM (≈ 0.303 µg/mL)

SMILES: CCCCS(=O)(=O)Nc1ccc2[nH]c(C(N)=O)c(C)c2c1 [Compound 8, 5-(butylsulfonamido)-3-methyl-1H-indole-2-carboxamide]
- half-life ([2]; microsomes): 6.16 min
- MIC H37Rv (M. tuberculosis H37Rv [1]): 3.1 µM (≈ 0.959 µg/mL)
- CC50 (in vitro): > 160 µM
- solubility kinetic at 4 h (physchem): 45.5 µM (≈ 14.1 µg/mL)

SMILES: CCCCS(=O)(=O)Nc1ccc2[nH]c(C#N)c(C)c2c1 [Compound 9, N-(2-cyano-3-methyl-1H-indol-5-yl)butane-1-sulfonamide]
- plasma stability at 5 h [3]: ≥ 80%
- half-life ([2]; mouse liver microsomes): 6.51 min
- reduction in CFUs, killing kinetics (M. tuberculosis [4]): > 2 log10
- cidality in vitro (M. tuberculosis [4]): in vitro bactericidal
- IC50 at 20 min [5]: > 1 µM
- plasma stability at 5 h [6]: ≥ 80%
- MIC H37Rv (M. tuberculosis H37Rv [1]): 0.78 µM (≈ 0.227 µg/mL)
- MIC (M. tuberculosis H37Rv [1]; H37Rv): 780 µM (≈ 227 µg/mL)
- MBC (M. tuberculosis [7]): 1.4 to 2.7 µM (≈ 0.408 to 0.787 µg/mL)
- increase of CFU in the lungs versus start of treatment (M. tuberculosis H37Rv [8]): about 1 log10 CFU
- bacterial load in the spleen (M. tuberculosis H37Rv [8]): did not reduce the bacterial load in the spleen
- CC50 (in vitro): 170 µM
- IC50 [9]: 0.19 µM

SMILES: CCCCCS(=O)(=O)Nc1ccc2[nH]c(C#N)c(C)c2c1 [Compound 10, N-(2-cyano-3-methyl-1H-indol-5-yl)pentane-1-sulfonamide]
- plasma stability at 5 h [3]: ≥ 80%
- half-life ([2]; mouse liver microsomes): 4.08 min
- cidality in vitro (M. tuberculosis [4]): in vitro bactericidal
- killing in combination with INH (M. tuberculosis [4]): culture sterilization
- IC50 at 20 min [5]: > 1 µM
- plasma stability at 5 h [6]: ≥ 80%
- MIC H37Rv (M. tuberculosis H37Rv [1]): 0.2 µM and 0.20 µM
- MBC (M. tuberculosis [7]): 0.65 to 1.3 µM (≈ 0.199 to 0.397 µg/mL)
- bacterial growth in the lungs (M. tuberculosis H37Rv [8]; 100 mg/kg): permissive of bacterial growth in the lungs
- activity in the lungs (M. tuberculosis H37Rv [8]; 200-mg/kg dosing regimen): bacteriostatic activity in the lungs
- bacterial load in the spleen (M. tuberculosis H37Rv [8]): did not reduce the bacterial load in the spleen
- CC50 (in vitro): 160 µM
- IC50 [9]: 0.078 µM
- IC50 (cytochrome P450 2C19): 0.542 µM

SMILES: CCCCS(=O)(=O)Nc1ccc2[nH]c(CN)c(C)c2c1 [Compound 11, N-(2-(aminomethyl)-3-methyl-1H-indol-5-yl)butane-1-sulfonamide]
- MIC H37Rv (M. tuberculosis H37Rv [1]): 100 µM (≈ 29.5 µg/mL)
- CC50 (in vitro): 170 µM

SMILES: CCCCCS(=O)(=O)Nc1ccc2[nH]nc(C)c2c1 [Compound 13, N-(3-methyl-1H-indazol-5-yl)pentane-1-sulfonamide]
- half-life ([2]; microsomes): 3.26 min
- MIC H37Rv (M. tuberculosis H37Rv [1]): 0.12 µM (≈ 0.0338 µg/mL)
- CC50 (in vitro): 89 µM
- solubility kinetic at 4 h (physchem): 476 µM (≈ 134 µg/mL)
- Kp at 5 h ([10]; female, CD-1, mouse, in vivo): 1.3
- t > MIC ([10]; female, CD-1, mouse, in vivo): 5 h
- AUC(0-t) [10, 18]: 13900 ng·h/mL

SMILES: CCCCS(=O)(=O)Nc1ccc2[nH]nc(Cl)c2c1 [Compound 14, N-(3-chloro-1H-indazol-5-yl)butane-1-sulfonamide]
- half-life ([2]; microsomes): 32.1 min
- MIC H37Rv (M. tuberculosis H37Rv [1]): 0.39 µM (≈ 0.112 µg/mL)
- CC50 (in vitro): 22 µM
- solubility kinetic at 4 h (physchem): 443 µM (≈ 127 µg/mL)
- Kp at 5 h ([10]; female, CD-1, mouse, in vivo): 0.6
- t > MIC ([10]; female, CD-1, mouse, in vivo): 5 h
- AUC(0-t) [10, 18]: 51700 ng·h/mL

SMILES: Cc1n[nH]c2ccc(NS(=O)(=O)CCCC(F)(F)F)cc12 [Compound 15, 4,4,4-trifluoro-N-(3-methyl-1H-indazol-5-yl)butane-1-sulfonamide]
- MIC H37Rv (M. tuberculosis H37Rv [1]): 0.25 µM (≈ 0.0803 µg/mL)
- CC50 (in vitro): > 160 µM
- Kp at 5 h ([10]; female, CD-1, mouse, in vivo): 0.95
- t > MIC ([10]; female, CD-1, mouse, in vivo): 5 h
- AUC(0-t) [10, 18]: 28400 ng·h/mL

SMILES: O=S(=O)(CCCC(F)(F)F)Nc1ccc2[nH]nc(Cl)c2c1 [Compound 16, N-(3-chloro-1H-indazol-5-yl)-4,4,4-trifluorobutane-1-sulfonamide]
- MIC H37Rv (M. tuberculosis H37Rv [1]): 0.20 µM (≈ 0.0683 µg/mL)
- CC50 (in vitro): > 150 µM
- Kp at 5 h ([10]; female, CD-1, mouse, in vivo): 1.2
- t > MIC ([10]; female, CD-1, mouse, in vivo): 5 h
- AUC(0-t) [10, 18]: 22000 ng·h/mL

SMILES: CCCCCS(=O)(=O)Nc1ccc2[nH]nc(Cl)c2c1 [Compound 17, N-(3-chloro-1H-indazol-5-yl)pentane-1-sulfonamide]
- MIC H37Rv (M. tuberculosis H37Rv [1]): 0.39 µM (≈ 0.118 µg/mL)
- CC50 (in vitro): 170 µM
- Kp at 5 h ([10]; female, CD-1, mouse, in vivo): 1.7
- t > MIC ([10]; female, CD-1, mouse, in vivo): 5 h
- AUC(0-t) [10, 18]: 34800 ng·h/mL

SMILES: O=S(=O)(CCCCF)Nc1ccc2[nH]nc(Cl)c2c1 [Compound 18, N-(3-chloro-1H-indazol-5-yl)-4-fluorobutane-1-sulfonamide]
- MIC H37Rv (M. tuberculosis H37Rv [1]): 0.20 µM (≈ 0.0612 µg/mL)
- CC50 (in vitro): 160 µM

SMILES: CCCCS(=O)(=O)Nc1ccc2cnn(C)c2c1 [DG167]
- Kinetic Aqueous Solubility [11]: 324 µM
- reduction in CFUs, killing kinetics (M. tuberculosis [4]): > 2 log10
- bacterial load of mouse lungs versus start of treatment (M. tuberculosis H37Rv [12]): did not reduce the bacterial load of mouse lungs
- MIC H37Rv (M. tuberculosis H37Rv [13]; footnote a, ref Kumar et al. (2018)): 0.39 µM (≈ 0.104 µg/mL)
- MIC against the wild-type H37Rv strain (M. tuberculosis H37Rv [13]; ref Kumar et al., 2018): 390 µM (≈ 104 µg/mL)
- increase of CFU in the lungs versus start of treatment (M. tuberculosis H37Rv [8]): about 1 log10 CFU
- MLM t1/2 [14]: 10.1 min
- CC50 (Vero cells): 23 µM
- AUC0–5h/MIC ([10]; mouse, in vivo, po): 20

SMILES: NNC(=O)c1ccncc1 [INH, isoniazid, reference compound]
- reduction in CFUs, controls (M. tuberculosis [15]; 4 weeks): ~ 2 log10
- reduction in CFU, killing kinetics (M. tuberculosis [4]; 103 MIC, over 4 days, with rapid re-growth): > 3 log10
- IC50 [9]: 0.5 µM

SMILES: Cc1n[nH]c2ccc(NS(=O)(=O)CCCCF)cc12 [JSF-3285, 4-fluoro-N-(3-methyl-1H-indazol-5-yl)butane-1-sulfonamide]
- improvement of efficacy of INH or RIF regimen on addition (M. tuberculosis [15]; 200 mg/kg added to 10 mg/kg INH or RIF): ~ 1 log10
- additional reduction of bacterial burden compared to INH- and RIF-only treatment (M. tuberculosis [15]; 200 mg/kg alone): ~ 1 log10 CFUs
- reduction of bacterial burden in the mouse lungs versus start of treatment (M. tuberculosis [15]; 200 mg/kg qd po alone or with 10 mg/kg INH or RIF, 4 weeks): more than 2 log10 CFUs
- reduction in CFUs in infected lungs (M. tuberculosis [15]; 200–5 mg/kg qd and 20 mg/kg qd or bid, 4 weeks of treatment): 1.5–2.0 log10
- MIC (Klebsiella pneumoniae): > 50 µg/mL
- IC50 (hERG): > 50 µM
- MIC (Staphylococcus aureus): > 50 µg/mL
- half-life ([2]; mouse liver microsomes): 28.4 min
- cidality in vitro (M. tuberculosis [4]): cidal to the H37Rv strain
- killing in combination with INH (M. tuberculosis [4]): culture sterilization
- MIC (Enterobacter cloacae): > 50 µg/mL
- MIC (Enterococcus faecium): > 50 µg/mL
- MIC H37Rv (M. tuberculosis H37Rv [1]): 0.20 µM (≈ 0.0571 µg/mL)
- Kd (KasA): 0.0707 ± 0.0235 µM
- reduction in lung bacterial burden (CFUs) versus start of treatment (M. tuberculosis H37Rv [8]; 100 or 200 mg/kg qd po, 4 weeks of treatment): ~ 2 log10
- CC50 (in vitro): 170 µM
- IC50 [9]: 0.046 µM
- solubility kinetic at 4 h (physchem): 175 µM (≈ 49.9 µg/mL)
- half-life ([16]; microsomes): 48.2 min
- intrinsic clearance (Clint) in dog liver microsomes [16]: 124 µL/min/mg
- increase in mouse plasma exposure (AUC0–5h) over DG167 ([10]; female, CD-1, mouse, in vivo): 30 fold
- t > MIC ([10]; female, CD-1, mouse, in vivo): 5 h
- AUC(0-t) [10, 18]: 59300 ng·h/mL
- Kp at 5 h ([10]; female, CD-1, mouse, lung and plasma, oral): 0.75
- mycolic acid biosynthesis [17]: inhibited mycolic acid biosynthesis
- MIC (Pseudomonas aeruginosa): > 50 µg/mL

SMILES: CO[C@H]1/C=C/O[C@@]2(C)Oc3c(C)c(O)c4c(O)c(c(/C=N/N5CCN(C)CC5)c(O)c4c3C2=O)NC(=O)/C(C)=C\C=C\[C@H](C)[C@H](O)[C@@H](C)[C@@H](O)[C@@H](C)[C@H](OC(C)=O)[C@@H]1C [RIF, rifampicin, reference compound]
- reduction in CFUs, controls (M. tuberculosis [15]; 4 weeks): ~ 2 log10
- IC50 [9]: 0.3 µM
